Assay results taken from patent publication US20240012012A1, “BIOMARKER AND TREATMENT FOR VASCULAR COGNITIVE IMPAIRMENT AND RELATED CONDITIONS” (priority 2020, published 2024).

How the values were obtained:
[1] = tested on: neurofilament light protein (NFL); assay: Serum NFL quantification (Simoa NF-Light), murine heart failure model (Example 1); format: in vivo, mouse; settings: 50 μg/kg/day and 500 μg/kg/day, relative to HF-saline
Protocol: Male C57Bl/6J adult mice (Harlan, 8-10 weeks old) were randomly assigned to either the sham control (n=12) or heart failure (HF) group (n=44). All mice prior to surgery were weighed and anesthetized. For the HF mice, myocardial infarction (MI) was induced by ligation of the left coronary artery (LCA). Under anesthesia (2.5% isoflurane in a mixture of air and 02) a thoracotomy was performed at the fourth left intercostal space and the LCA permanently ligated to induce a myocardial infarction (MI). Occlusion of the LCA was confirmed by observing blanching, a slight change in color of the anterior wall of the left ventricle downstream of the ligature. Sham mice underwent the same procedure with the exception of ligating the LCA.
Following 5 weeks post MI surgery, mice were treated for […] with daily subcutaneous injections as follows:
NFL Quantification: Immediately following the final NOR test, mice were sacrificed and serum samples were obtained for NFL quantification using the Simoa™ NF-Light® kit (Quanterix Cat #103186, Lot #501953), which quantifies neurofilament light (NFL). Assay samples were diluted 1:4 and calibrators were undiluted. As samples and calibrators were run in duplicate and analyzed using the HD-X Analyzer software package.

[2] = tested on: neurofilament light protein (NFL); assay: Serum NFL levels in patients undergoing coronary artery bypass grafting (CABG); format: in vivo, human; settings: 200 μg/kg/day s.c. for 21 days, vs saline vehicle
Description: It is well documented that patients undergoing coronary artery bypass grafting (CABG) tend to experience post-surgical cognitive dysfunction. The present study elucidates the response in serum NFL levels to CABG and how that response may be modulated by Ang-(1-7) treatment. Potential CABG participants underwent a screening visit between 2 and 15 days prior to CABG surgery, including a full medical history and physical examination to rule out dementia (Mini-Mental State Exam score less than 25), and depression (Geriatric Depression Scale score greater than 10). Between 1 and 15 days prior to CABG surgery, participants underwent neuropsychological evaluation including memory testing and blood draws for clinical pathology assessment, NFL biomarker assessment. […] At 21 days post-surgery, additional blood samples were obtained, and serum NFL levels were measured.
The serum NFL concentration was measure in six subjects prior to CABG surgery and in 18 age-matched control subjects. […] Two subjects were administered saline vehicle control. […] Following surgery, serum NFL levels increased about four-fold in the patients treated with saline vehicle compared to pre-surgery level (p=0.0002).

TNFα = assay: Plasma cytokines, MILLIPLEX MAP Mouse High Sensitivity Multiplex Immunoassay; format: in vivo; settings: 50 μg/kg/day; values at or below assay threshold represented as 3.12
Protocol: Mice were assigned randomly to the following treatment groups: Control-Saline (sham MI surgery, treated with saline), HF-treated (HF-PNA5, or HF-Ang-(1-7) with either 50 μg/kg/day, or 500 μg/kg/day), or HF-saline. Mice recovered for 5 weeks following MI before receiving 24 days of daily subcutaneous drug treatment. Within the last 3 days of injections, animals underwent Novel Object Recognition (NOR) testing (FIG. 6). […]
Cytokine concentrations were measured in the brain lysates and plasma samples by multiplex immunoassay using a MAGPIX Multiplexing Instrument and accompanying Multiplex Analyst software (MILLIPLEX MAP Mouse Cytokine/Chemokine Magnetic Bead Panel-Immunology Multiplex Assay; MCYTOMAG-70 K; Millipore Sigma, Burlington, Massachusetts). […] All samples were run in duplicate, and the results were analyzed using ANOVA and relevant post using GraphPad Prism9. To create a composite cytokine score, we calculated the z-scores for IL-2, IL-13, and IL-17 brain cytokines. […] The z-score was calculated for each cytokine using the following equation: […]

brain cytokines = assay: Whole brain lysate cytokines, MILLIPLEX MAP Mouse High Sensitivity Multiplex Immunoassay; format: in vivo
Protocol: Mice were assigned randomly to the following treatment groups: Control-Saline (sham MI surgery, treated with saline), HF-treated (HF-PNA5, or HF-Ang-(1-7) with either 50 μg/kg/day, or 500 μg/kg/day), or HF-saline. Mice recovered for 5 weeks following MI before receiving 24 days of daily subcutaneous drug treatment. Within the last 3 days of injections, animals underwent Novel Object Recognition (NOR) testing (FIG. 6). Animal treatment groups were as listed: heart failure (HF)-saline treated n=15, (HF-Saline), Sham surgery-saline treated n=15 (Control-Saline), HF-Ang-(1-7) at 500 μg/kilogram body weight/day for 24 days (HF-A500) n=15, HF-Ang-(1-7) at 50 μg/kg body weight/day for 24 days (HF-A50) n=15, HF-PNA5 at 500 μg/kilogram body weight/day (HF-P500) n=15, HF-PNA5 at 50 μg/kilogram body weight/day (HF-P50) n=15. Following MI, up to 7 mice died within a group resulting in varying number of mice per group that were available to undergo treatment, NOR testing, and provide serum samples.
Mice were anesthetized with isoflurane and rapidly decapitated. Brains were separated from the skull and quickly cut into two hemispheres. The halves of the brain were then rapidly frozen in corning tubes in liquid nitrogen and stored at −80° C. One half of each brain was lysed using 1 mL RIPA buffer (1% Triton X-100, 0.1% SDS, 1×PBS) with protease (protease inhibitor cocktail 100× [Sigma P8340]) and phosphatase inhibitors (phosphatase inhibitor cocktail 100× [Sigma P5726]). Tissue was then sonicated using an ultrasonic cell disruptor at 30% 40% amplitude for 1 min. Samples were returned to ice in between sonication to prevent the tissue from warming. Samples were then centrifuged at 4° C. or 15 min at 13,000×g. The supernatant was collected and stored at −80° C. Total protein was measured in the range of […]. Brain lysates were used for multiplex immunoassays.
Cytokine concentrations were measured in the brain lysates and plasma samples by multiplex immunoassay using a MAGPIX Multiplexing Instrument and accompanying Multiplex Analyst software (MILLIPLEX MAP Mouse Cytokine/Chemokine Magnetic Bead Panel-Immunology Multiplex Assay; MCYTOMAG-70 K; Millipore Sigma, Burlington, Massachusetts). Simultaneous measurements of granulocyte colony-stimulating factor (GCSF), granulocyte-macrophage colony-stimulating factor, interferon, interleukin (IL)-1a, IL-1B, IL-2, IL-4, IL-5, IL-6, IL-7, IL-9, IL-10, IL-12 (p40), IL-12 (p70), IL-13, IL-15, IL-17, interferon-induced protein 10, chemokine (C-X-C motif) (CXC) ligand 1 (KC), chemokine (C-C motif) ligand (CCL) 2 (monocyte chemoattractant protein-1), CCL3 [macrophage inflammatory protein (MIP) 1a], CCL4 (MIP1b), CXC ligand 2 (MIP2), CCL5 [RANTES (regulated on activation normal T cell expressed and secreted)], and tumor necrosis factor-alpha (TNF-α) were captured. All samples were run in duplicate, and the results were analyzed using ANOVA and relevant post using GraphPad Prism9. To create a composite cytokine score, we calculated the z-scores for IL-2, IL-13, and IL-17 brain cytokines. Z-scores were then added to create a composite cytokine score. The z-score was calculated for each cytokine using the following equation: […]

Substance: DRVYIHP [Ang-(1-7), Asp-Arg-Val-Tyr-Ile-His-Pro, Mas receptor agonist]
- HF-induced increase in serum NFL levels [1]: reversed
- post-surgical increase in serum NFL [2]: significantly reduced that post-surgical increase
- plasma TNFα, mean (TNFα): 3.12 pg/mL
- brain IL-1α, mean ± SE (brain cytokines; 50 ug/kg): 95.6 ± 8.4 pg/mL
- brain IL-10 (row head as printed; title says IP-10), mean ± SE (brain cytokines; 50 ug/kg): 42.2 ± 3.2 pg/mL
- brain IL-17, mean ± SE (brain cytokines; 50 ug/kg): 44.1 ± 2.8 pg/mL
- brain IL-1α, mean ± SE (brain cytokines; 500 ug/kg): 95.6 ± 5.5 pg/mL
- brain IL-2, mean ± SE (brain cytokines; 500 ug/kg): 50.9 ± 1.9 pg/mL
- brain IL-5, mean ± SE (brain cytokines; 500 ug/kg): 53.2 ± 2.7 pg/mL
- brain IL-10 (row head as printed; title says IP-10), mean ± SE (brain cytokines; 500 ug/kg): 43.8 ± 4.2 pg/mL
- brain IL-17, mean ± SE (brain cytokines; 500 ug/kg): 42.0 ± 1.1 pg/mL
- brain lysate levels of IL-1α, IL-2, IL-5, IL-13, and IL-17 compared to HF-Saline (brain cytokines; A50 or A500 (50 or 500 ug/kg)): significantly increased
